Results from patent publication US20230277632A1, “MODIFIED PlySs2 LYSINS AND ANTIBIOTIC COMBINATIONS FOR USE AGAINST GRAM-POSITIVE BACTERIA” (ContraFect Corporation, priority 2020, published 2023).
≈ marks a conversion by molar mass, not a printed value. Where “and” joins values, the source holds several entries; their conditions need not be identical. Identical values can stand only once.

Tests used:
S. aureus isolates [1] = test: MIC determination (broth microdilution) against 8 S. aureus isolates; format: cell-based; conditions: CAMHB, unit assumed
Method: Suitable methods for assessing the activity of a modified lysin polypeptide as disclosed herein are well known in the art and described in the examples. […] For example, MIC values for a modified lysin polypeptide may be determined against e.g., laboratory Staphylococcus aureus strains, in e.g., Mueller-Hinton broth or Mueller-Hinton broth supplemented with serum, such as horse serum.
The pp296 MICs were determined based on (1) cation-adjusted Mueller-Hinton Broth with 25% horse serum and 0.5 mM DTT (caMHB-HSD); (2) human serum (100% serum); and (3) ICR mice (100% serum). Vancomycin and daptomycin MICs of the isolate strains were determined in accordance with the broth microdilution method as outlined by CLSI. Results of the MIC determination are shown below in Table 2. The bacterial isolates were frozen at −80° C. in skim milk.

S. aureus isolates [2] = test: Vancomycin dose-ranging, neutropenic murine thigh infection model; format: in vivo; conditions: 24 h
Method: (§1) Study animals: Specific pathogen-free female ICR mice (average body weight 23 grams) were provided food and water ad libitum and maintained and used in accordance with National Research Council recommendations. Animals were allowed a 48-hour post-delivery acclimation period before every experiment. Mice were rendered transiently neutropenic by injection of cyclophosphamide via intraperitoneal (IP) route at a dose of 150 mg/kg of body weight at four days before bacterial inoculation and 100 mg/kg of body weight at one day before bacterial inoculation.
(§2) Neutropenic Thigh Infection Model: Two transfers of the bacterial isolates were performed onto trypticase soy agar plates with 5% sheep blood and placed into an incubator at 37° C. for approximately 24 hours. After an 18-24 hour incubation of the second transfer, a suspension of approximately 10^7 CFU/mL was made for inoculation. Final bacterial inoculum concentrations were confirmed by serial dilution and plating techniques. Thigh infection with the test isolate was produced by intramuscular injection of 0.1 mL of the bacterial inoculum into each thigh of the mice. […]
Two hours post-bacterial inoculation, one group of mice (n=3) was sacrificed to serve as a 0 hour control, representing initial bacterial burden in the thigh, wherein bacterial burden is determined as the average CFU from 6 thighs, i.e., 2 thighs per mouse. […]

S. aureus isolates [3] = test: In vivo efficacy of vancomycin in combination with pp296, neutropenic murine thigh infection model; conditions: 24 h; for Replicate Log10 CFU/thigh data: listed as VAN
Method: as §1
as §2, with “mice. Antimicrobial therapy was initiated 2 hours after bacterial inoculation, as detailed below.” for “mice.”
Untreated control mice (n=3) were sacrificed just prior to antibiotic administration and 24 hours after bacterial inoculation. Animals sacrificed prior to antibiotic initiation served as 0-hour control animals, representing initial bacterial burden. […] Treatment mice (n=3/group) were sacrificed at the end of the 24 hour treatment period. After sacrifice, both thighs for each mouse were homogenized in normal saline. Serial dilutions were plated on Trypticase soy agar with 5% sheep blood and incubated for 18 to 20 hours at 37.0 to determine the CFU. Efficacy was calculated as the change in bacterial density obtained in treated mice after 24 hours compared with the numbers in the 0-hour control animals. Bacterial density represents the average CFU determined from 3 mice, each contributing 2 thighs.

S. aureus = test: pp296 dose fractionation study, neutropenic murine thigh infection model; format: in vivo; conditions: vancomycin 3 mg/kg Q12h SC alone, 24 h
Method: Each of the pp296 TDDs was fractionated into three regimens, i.e., one-third of the entire dose was administered via IV three times (q8h); one-half of the entire does was administered via IV two times (q12h), or the entire dose was administered via IV once daily over a 24-hour period, for a total of three groups per each TDD.
Untreated control mice (n=3/group) were sacrificed just prior to antibiotic administration, as well as 24 hours later. Animals sacrificed prior to antibiotic administration served as 0-hour control animals, representing initial bacterial burden. The 24-hour control animals received sterile normal saline in the same volume and schedule as the most frequent active drug regimen. […] After the 24-hour treatment period, all animals were euthanized and thighs were cultured quantitatively as described above. The change in bacterial density was calculated for each of the dosing regimen. Comparisons were made between the different regimens of the same total daily dose on bacterial burdens at 24 hours using one-way Analysis of Variance (ANOVA) test followed by Tukey's test where the P value was 0.05.

CN[C@H](CC(C)C)C(=O)N[C@H]1C(=O)N[C@@H](CC(N)=O)C(=O)N[C@H]2C(=O)N[C@H]3C(=O)N[C@H](C(=O)N[C@H](C(=O)O)c4cc(O)cc(O)c4-c4cc3ccc4O)[C@H](O)c3ccc(c(Cl)c3)Oc3cc2cc(c3O[C@@H]2O[C@H](CO)[C@@H](O)[C@H](O)[C@H]2O[C@H]2C[C@](C)(N)[C@H](O)[C@H](C)O2)Oc2ccc(cc2Cl)[C@H]1O [Vancomycin, vancomycin]
MIC Vancomycin (CAMHB) (S. aureus isolates [1]; ATCC 29213 MSSA): 1 µg/mL (≈ 0.69 µM)
MIC Vancomycin (CAMHB) (S. aureus isolates [1]; CAIRD426 MRSA): 1 µg/mL (≈ 0.69 µM)
MIC Vancomycin (CAMHB) (S. aureus isolates [1]; HPV107 MRSA): 1 µg/mL (≈ 0.69 µM)
MIC Vancomycin (CAMHB) (S. aureus isolates [1]; JMI227 MRSA): 1 µg/mL (≈ 0.69 µM)
MIC Vancomycin (CAMHB) (S. aureus isolates [1]; JMI4789 MRSA): 1 µg/mL (≈ 0.69 µM)
MIC Vancomycin (CAMHB) (S. aureus isolates [1]; NRS100 (COL) MRSA): 1 µg/mL (≈ 0.69 µM)
MIC Vancomycin (CAMHB) (S. aureus isolates [1]; NRS123 (MW2) MRSA): 1 µg/mL (≈ 0.69 µM)
MIC Vancomycin (CAMHB) (S. aureus isolates [1]; NRS271 MRSA/LRSA): 1 µg/mL (≈ 0.69 µM)
bacterial burden reduction vs 0-hour controls (S. aureus isolates [2]; upper end of dose-response, vancomycin 3.125-25 mg/kg q12h SC, all isolates): −1.15±0.40 log10 CFU/thigh
mean bacterial burden change vs 0-hour controls (S. aureus isolates [2]; vancomycin 3.125 mg/kg q12h SC, mean of 8 isolates): −0.05±1.16 log10 CFU/thigh
Replicate Log10 CFU/thigh data (S. aureus isolates [3]; ATCC2921, VAN 3 mg/kg alone): 4.59 Log10 CFU/thigh and 4.96 Log10 CFU/thigh and 7.87 Log10 CFU/thigh and 5.18 Log10 CFU/thigh and 7.18 Log10 CFU/thigh and 6.03 Log10 CFU/thigh
Replicate Log10 CFU/thigh data (S. aureus isolates [3]; CAIRD426, VAN 1.5 mg/kg alone): 6.89 Log10 CFU/thigh and 6.51 Log10 CFU/thigh and 7.97 Log10 CFU/thigh and 8.04 Log10 CFU/thigh
Replicate Log10 CFU/thigh data (S. aureus isolates [3]; CAIRD426, VAN 3 mg/kg alone, Run #1): 4.81 Log10 CFU/thigh and 7.53 Log10 CFU/thigh and 6.53 Log10 CFU/thigh
Replicate Log10 CFU/thigh data (S. aureus isolates [3]; CAIRD426, VAN 3 mg/kg alone, Run #2): 7.82 Log10 CFU/thigh and 8.21 Log10 CFU/thigh and 7.74 Log10 CFU/thigh and 7.40 Log10 CFU/thigh and 7.47 Log10 CFU/thigh and 7.20 Log10 CFU/thigh
Replicate Log10 CFU/thigh data (S. aureus isolates [3]; HPV107, VAN 1.5 mg/kg alone): 8.44 Log10 CFU/thigh and 8.20 Log10 CFU/thigh and 8.00 Log10 CFU/thigh and 7.87 Log10 CFU/thigh and 8.32 Log10 CFU/thigh
Replicate Log10 CFU/thigh data (S. aureus isolates [3]; HPV107, VAN 3 mg/kg alone, Run #1): 7.50 Log10 CFU/thigh and 7.81 Log10 CFU/thigh and 7.24 Log10 CFU/thigh and 7.40 Log10 CFU/thigh and 7.36 Log10 CFU/thigh and 6.51 Log10 CFU/thigh
Replicate Log10 CFU/thigh data (S. aureus isolates [3]; HPV107, VAN 3 mg/kg alone, Run #2): 7.49 Log10 CFU/thigh and 7.73 Log10 CFU/thigh and 5.45 Log10 CFU/thigh
Replicate Log10 CFU/thigh data (S. aureus isolates [3]; JMI227, VAN 3 mg/kg alone): 7.50 Log10 CFU/thigh and 6.17 Log10 CFU/thigh and 8.04 Log10 CFU/thigh and 8.21 Log10 CFU/thigh and 8.47 Log10 CFU/thigh and 7.51 Log10 CFU/thigh
Replicate Log10 CFU/thigh data (S. aureus isolates [3]; JMI4789, VAN 3 mg/kg alone): 8.41 Log10 CFU/thigh and 8.01 Log10 CFU/thigh and 6.93 Log10 CFU/thigh (2×) and 4.92 Log10 CFU/thigh
Replicate Log10 CFU/thigh data (S. aureus isolates [3]; NRS100, VAN 1.5 mg/kg alone): 6.30 Log10 CFU/thigh and 4.89 Log10 CFU/thigh and 4.85 Log10 CFU/thigh and 4.30 Log10 CFU/thigh and 4.69 Log10 CFU/thigh and 6.73 Log10 CFU/thigh
Replicate Log10 CFU/thigh data (S. aureus isolates [3]; NRS100, VAN 3 mg/kg alone, Run #1): 4.58 Log10 CFU/thigh (2×) and 4.90 Log10 CFU/thigh and 4.89 Log10 CFU/thigh and 4.48 Log10 CFU/thigh and 4.56 Log10 CFU/thigh
Replicate Log10 CFU/thigh data (S. aureus isolates [3]; NRS100, VAN 3 mg/kg alone, Run #2): 4.75 Log10 CFU/thigh and 6.89 Log10 CFU/thigh and 4.70 Log10 CFU/thigh and 4.58 Log10 CFU/thigh and 4.83 Log10 CFU/thigh and 6.46 Log10 CFU/thigh
Replicate Log10 CFU/thigh data (S. aureus isolates [3]; NRS123, VAN 3 mg/kg alone): 7.17 Log10 CFU/thigh and 7.02 Log10 CFU/thigh and 7.77 Log10 CFU/thigh and 8.38 Log10 CFU/thigh and 8.32 Log10 CFU/thigh and 8.01 Log10 CFU/thigh
Replicate Log10 CFU/thigh data (S. aureus isolates [3]; NRS217, VAN 1.5 mg/kg alone): 7.60 Log10 CFU/thigh and 8.28 Log10 CFU/thigh and 8.26 Log10 CFU/thigh and 7.90 Log10 CFU/thigh and 6.43 Log10 CFU/thigh and 7.61 Log10 CFU/thigh
Replicate Log10 CFU/thigh data (S. aureus isolates [3]; NRS217, VAN 3 mg/kg alone, Run #1): 6.66 Log10 CFU/thigh and 6.70 Log10 CFU/thigh and 7.23 Log10 CFU/thigh and 6.68 Log10 CFU/thigh and 7.60 Log10 CFU/thigh and 6.55 Log10 CFU/thigh
Replicate Log10 CFU/thigh data (S. aureus isolates [3]; NRS217, VAN 3 mg/kg alone, Run #2): 7.06 Log10 CFU/thigh and 7.38 Log10 CFU/thigh and 5.26 Log10 CFU/thigh and 4.73 Log10 CFU/thigh and 6.82 Log10 CFU/thigh
Replicate Log10 CFU/thigh data (S. aureus isolates [3]; isolate HPV107, VAN 5 mg/kg q12h SC alone): 4.73 Log10 CFU/thigh and 8.28 Log10 CFU/thigh and 4.75 Log10 CFU/thigh and 4.88 Log10 CFU/thigh
Replicate Log10 CFU/thigh data (S. aureus isolates [3]; isolate NRS100, VAN 5 mg/kg q12h SC alone): 4.68 Log10 CFU/thigh (2×) and 4.78 Log10 CFU/thigh (2×) and 4.56 Log10 CFU/thigh and 4.73 Log10 CFU/thigh
Replicate Log10 CFU/thigh data (S. aureus isolates [3]; isolate NRS217, VAN 5 mg/kg q12h SC alone): 4.64 Log10 CFU/thigh and 6.13 Log10 CFU/thigh and 4.76 Log10 CFU/thigh and 4.56 Log10 CFU/thigh and 4.75 Log10 CFU/thigh
average bacterial growth vs starting inoculum (S. aureus isolates [3]; vancomycin 1.5 mg/kg Q12h SC alone, 4 isolates): 2.75±0.52 log10 CFU/thigh
average bacterial reduction vs starting inoculum (S. aureus isolates [3]; vancomycin 5 mg/kg q12h SC alone, 4 isolates): −0.38±1.10 log10 CFU/thigh
bacterial burden vs 0-hour control mice (S. aureus): 0.41±0.62 log10 CFU/thigh
